The supplement of paper PMC13207355

How the values were obtained:
Conditions in all cases: exposure time: 72 h
E13 [1] = patient-derived glioblastoma stem cells of classical subtype; test: surviving fraction (nuclei count normalised to DMSO); higher = more cells surviving (less toxic)
E21 [2] = patient-derived glioblastoma stem cells of mesenchymal subtype; test: as above
E28 [3] = patient-derived glioblastoma stem cells of classical subtype; test: as above
E34 [4] = patient-derived glioblastoma stem cells of proneural subtype; test: as above
E57 [5] = patient-derived glioblastoma stem cells of mesenchymal subtype; test: as above
FT3469 [6] = normal neural stem cell line; test: as above
E13 [7] = test: phenotypic distance (Euclidean, principal components) from DMSO controls (arbitrary units); higher = stronger morphological change
E21 [8] = test: as above
E28 [9] = test: as above
E34 [10] = test: as above
E57 [11] = test: as above
FT3469 [12] = test: as above
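Wherever phenotypic distance (Euclidean, principal components) from DMSO controls is given: cell Painting imaging in 384-well plates, CellProfiler features reduced to at least 20 principal components, Euclidean distance versus same-plate DMSO vehicle wells (0.1% v/v), median over six images per well.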
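Wherever surviving fraction (nuclei count normalised to DMSO) is given: nuclei counted by high-content imaging of Hoechst-stained cells in laminin-coated 384-well plates, relative to 0.1% DMSO vehicle wells, with staurosporine as cell-death control.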

CC(C)C[C@H](NC(=O)[C@H](Cc1ccccc1)C[C@@H](O)[C@H](Cc1ccccc1)NC(=O)OC(C)(C)C)C(=O)N[C@@H](Cc1ccccc1)C(N)=O [L-685,458]
Conditions | phenotypic distance | surviving fraction
E13 [1], 4.1 nM | – | 1.06
E13 [1], 4.11523 nM | – | 1.16
E13 [1], 12.3 nM | – | 1.04
E13 [1], 12.34567901 nM | – | 1.1
E13 [1], 37 nM | – | 1.01
E13 [1], 37.037 nM | – | 0.999
E13 [1], 111.1 nM | – | 1.18
E13 [1], 111.1111111 nM | – | 1.01
E13 [1], 333.3 nM | – | 1.02
E13 [1], 333.333 nM | – | 1.09
E13 [1], 1000 nM | – | 1.14
E13 [1], 3000 nM | – | 1.01
E13 [7], 4.1 nM | 0.562 | –
E13 [7], 4.11523 nM | 0.913 | –
E13 [7], 12.3 nM | 0.877 | –
E13 [7], 12.34567901 nM | 0.727 | –
E13 [7], 37 nM | 0.594 | –
E13 [7], 37.037 nM | 0.991 | –
E13 [7], 111.1 nM | 0.891 | –
E13 [7], 111.1111111 nM | 2.26 | –
E13 [7], 333.3 nM | 0.794 | –
E13 [7], 333.333 nM | 0.929 | –
E13 [7], 1000 nM | 1.66 | –
E13 [7], 3000 nM | 0.881 | –
E21 [2], 4.1 nM | – | 0.96
E21 [2], 4.11523 nM | – | 0.891
E21 [2], 12.3 nM | – | 0.969
E21 [2], 12.34567901 nM | – | 0.958
E21 [2], 37 nM | – | 0.95
E21 [2], 37.037 nM | – | 0.941
E21 [2], 111.1 nM | – | 1.03
E21 [2], 111.1111111 nM | – | 1.03
E21 [2], 333.3 nM | – | 0.861
E21 [2], 333.333 nM | – | 1.04
E21 [2], 1000 nM | – | 1.05
E21 [2], 3000 nM | – | 0.948
E21 [8], 4.1 nM | 0.782 | –
E21 [8], 4.11523 nM | 0.593 | –
E21 [8], 12.3 nM | 0.577 | –
E21 [8], 12.34567901 nM | 0.764 | –
E21 [8], 37 nM | 0.535 | –
E21 [8], 37.037 nM | 0.752 | –
E21 [8], 111.1 nM | 0.68 | –
E21 [8], 111.1111111 nM | 0.628 | –
E21 [8], 333.3 nM | 0.73 | –
E21 [8], 333.333 nM | 0.786 | –
E21 [8], 1000 nM | 0.724 | –
E21 [8], 3000 nM | 0.836 | –
E28 [3], 4.1 nM | – | 0.997
E28 [3], 4.11523 nM | – | 1.1
E28 [3], 12.3 nM | – | 1.15
E28 [3], 12.34567901 nM | – | 0.885
E28 [3], 37 nM | – | 0.825
E28 [3], 37.037 nM | – | 1.02
E28 [3], 111.1 nM | – | 1.11
E28 [3], 111.1111111 nM | – | 0.813
E28 [3], 333.3 nM | – | 0.795
E28 [3], 333.333 nM | – | 1.02
E28 [3], 1000 nM | – | 0.858
E28 [3], 3000 nM | – | 0.834
E28 [9], 4.1 nM | 0.474 | –
E28 [9], 4.11523 nM | 0.565 | –
E28 [9], 12.3 nM | 0.894 | –
E28 [9], 12.34567901 nM | 0.663 | –
E28 [9], 37 nM | 0.847 | –
E28 [9], 37.037 nM | 0.502 | –
E28 [9], 111.1 nM | 0.482 | –
E28 [9], 111.1111111 nM | 0.958 | –
E28 [9], 333.3 nM | 0.937 | –
E28 [9], 333.333 nM | 0.39 | –
E28 [9], 1000 nM | 0.79 | –
E28 [9], 3000 nM | 0.756 | –
E34 [4], 4.1 nM | – | 0.787
E34 [4], 4.11523 nM | – | 0.957
E34 [4], 12.3 nM | – | 1.02
E34 [4], 12.34567901 nM | – | 0.895
E34 [4], 37 nM | – | 0.964
E34 [4], 37.037 nM | – | 1.09
E34 [4], 111.1 nM | – | 0.946
E34 [4], 111.1111111 nM | – | 0.976
E34 [4], 333.3 nM | – | 0.746
E34 [4], 333.333 nM | – | 1.15
E34 [4], 1000 nM | – | 1
E34 [4], 3000 nM | – | 0.924
E34 [10], 4.1 nM | 1.11 | –
E34 [10], 4.11523 nM | 0.526 | –
E34 [10], 12.3 nM | 0.954 | –
E34 [10], 12.34567901 nM | 0.619 | –
E34 [10], 37 nM | 0.627 | –
E34 [10], 37.037 nM | 0.56 | –
E34 [10], 111.1 nM | 0.75 | –
E34 [10], 111.1111111 nM | 0.762 | –
E34 [10], 333.3 nM | 1.1 | –
E34 [10], 333.333 nM | 0.452 | –
E34 [10], 1000 nM | 0.948 | –
E34 [10], 3000 nM | 1.12 | –
E57 [5], 4.1 nM | – | 1.04
E57 [5], 4.11523 nM | – | 0.963
E57 [5], 12.3 nM | – | 0.967
E57 [5], 12.34567901 nM | – | 0.988
E57 [5], 37 nM | – | 0.958
E57 [5], 37.037 nM | – | 0.998
E57 [5], 111.1 nM | – | 1.01
E57 [5], 111.1111111 nM | – | 1.03
E57 [5], 333.3 nM | – | 1.08
E57 [5], 333.333 nM | – | 0.989
E57 [5], 1000 nM | – | 1.04
E57 [5], 3000 nM | – | 1
E57 [11], 4.1 nM | 0.808 | –
E57 [11], 4.11523 nM | 1.06 | –
E57 [11], 12.3 nM | 1.19 | –
E57 [11], 12.34567901 nM | 0.938 | –
E57 [11], 37 nM | 1.05 | –
E57 [11], 37.037 nM | 0.959 | –
E57 [11], 111.1 nM | 1.22 | –
E57 [11], 111.1111111 nM | 0.783 | –
E57 [11], 333.3 nM | 0.893 | –
E57 [11], 333.333 nM | 1.03 | –
E57 [11], 1000 nM | 1.1 | –
E57 [11], 3000 nM | 1.07 | –
FT3469 [6], 4.1 nM | – | 0.944
FT3469 [6], 4.11523 nM | – | 0.979
FT3469 [6], 12.3 nM | – | 1.02
FT3469 [6], 12.34567901 nM | – | 0.858
FT3469 [6], 37 nM | – | 0.9
FT3469 [6], 37.037 nM | – | 1.03
FT3469 [6], 111.1 nM | – | 0.901
FT3469 [6], 111.1111111 nM | – | 0.984
FT3469 [6], 333.3 nM | – | 0.882
FT3469 [6], 333.333 nM | – | 0.884
FT3469 [6], 1000 nM | – | 0.867
FT3469 [6], 3000 nM | – | 0.838
FT3469 [12], 4.1 nM | 0.822 | –
FT3469 [12], 4.11523 nM | 0.544 | –
FT3469 [12], 12.3 nM | 0.633 | –
FT3469 [12], 12.34567901 nM | 0.898 | –
FT3469 [12], 37 nM | 0.582 | –
FT3469 [12], 37.037 nM | 0.598 | –
FT3469 [12], 111.1 nM | 1.41 | –
FT3469 [12], 111.1111111 nM | 0.791 | –
FT3469 [12], 333.3 nM | 0.871 | –
FT3469 [12], 333.333 nM | 0.681 | –
FT3469 [12], 1000 nM | 0.906 | –
FT3469 [12], 3000 nM | 1.06 | –
